Source: patent US9409866B2, “Pyridine-2-amides useful as CB2 agonists” (Hoffmann-La Roche Inc., priority 2012, dated 2016)
Like-named read-outs stand apart in the source and are kept apart here.

What was measured:
[1] = target: human CB2 receptors (Homo sapiens (Human), UniProt P34972); assay: functional cAMP assay, CHO cells expressing human CB2; format: cell-based
How it was run: (§1)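 Agonist EC50 values came from cAMP levels in CHO cells carrying human CB1 or CB2, after 30 min of compound treatment at 30 °C in the presence of 1 mM IBMX. Detection used a time-resolved FRET cAMP kit read against a cAMP standard curve.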

[2] = target: human CB1 receptors (Homo sapiens (Human), UniProt P21554); assay: functional cAMP assay, CHO cells expressing human CB1; format: cell-based
Chain of human CB1 receptors (P21554 whole entry): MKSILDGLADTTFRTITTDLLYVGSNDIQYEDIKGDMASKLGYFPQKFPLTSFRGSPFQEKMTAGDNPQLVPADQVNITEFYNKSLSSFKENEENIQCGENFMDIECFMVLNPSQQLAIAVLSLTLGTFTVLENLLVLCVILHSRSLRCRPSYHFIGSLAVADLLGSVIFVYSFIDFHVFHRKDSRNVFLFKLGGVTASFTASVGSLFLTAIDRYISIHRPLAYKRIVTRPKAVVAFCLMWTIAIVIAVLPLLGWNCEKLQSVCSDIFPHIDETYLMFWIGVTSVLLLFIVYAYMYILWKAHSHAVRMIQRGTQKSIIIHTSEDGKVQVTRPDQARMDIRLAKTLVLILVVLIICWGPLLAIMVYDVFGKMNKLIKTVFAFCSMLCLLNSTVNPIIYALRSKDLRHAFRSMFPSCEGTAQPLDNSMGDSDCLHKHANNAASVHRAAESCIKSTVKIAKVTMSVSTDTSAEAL
How it was run: as §1

[3] = functional cAMP assay, CHO cells expressing human CB1; read-out: Human CB1 EC50
[4] = read-out: Human CB1 EC50; functional cAMP assay, CHO cells expressing human CB1
[5] = Human CB1 EC50 (uM), functional cAMP assay, CHO cells expressing human CB1

Chain of human CB2 receptors (P34972 whole entry): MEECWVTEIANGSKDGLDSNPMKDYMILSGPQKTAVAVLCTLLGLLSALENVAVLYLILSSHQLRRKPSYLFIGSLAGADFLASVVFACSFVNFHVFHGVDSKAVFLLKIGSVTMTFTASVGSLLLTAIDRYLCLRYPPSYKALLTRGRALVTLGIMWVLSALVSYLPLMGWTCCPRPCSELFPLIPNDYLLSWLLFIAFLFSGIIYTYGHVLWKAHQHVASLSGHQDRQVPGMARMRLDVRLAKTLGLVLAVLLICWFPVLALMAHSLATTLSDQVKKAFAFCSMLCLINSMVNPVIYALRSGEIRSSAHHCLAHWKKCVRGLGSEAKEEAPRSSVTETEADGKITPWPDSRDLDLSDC

| SMILES | EC50 ([1]; read-out: Human CB2 EC50) [µM] | EC50 [2, 3] [µM] | EC50 ([1]; Human CB2 EC50 (uM)) [µM] | EC50 [2, 4] [µM] | EC50 [2, 5] [µM] |
| --- | --- | --- | --- | --- | --- |
| NC(=O)[C@@H]1CC(F)(F)CN1C(=O)c1cc(OCC(F)(F)F)c(C2CC2)cn1 [Example 115, (2S)-1-[5-cyclopropyl-4-(2,2,2-trifluoroethoxy)pyridine-2-carbonyl]-4,4-difluoropyrrolidine-2-carboxamide] | 1.26 | > 10 | – | – | – |
| CC(C)[C@](C)(CO)NC(=O)c1cc(OCC2CC2)c(Cl)cn1 [Example 14, 5-Chloro-4-cyclopropylmethoxy-pyridine-2-carboxylic acid ((R)-1-hydroxymethyl-1,2-dimethyl-propyl)-amide] | 0.0128 | 6.98 | – | – | – |
| Cc1nc(C(C)(NC(=O)c2cc(OCC(F)(F)F)c(C3CC3)cn2)C(N)=O)no1 (centres unmarked) [Example 180, N-[1-amino-2-(5-methyl-1,2,4-oxadiazol-3-yl)-1-oxopropan-2-yl]-5-cyclopropyl-4-(2,2,2-trifluoroethoxy)pyridine-2-carboxamide] | 0.149 | > 10 | – | – | – |
| CC(CC(N)=O)(NC(=O)c1cc(OCC(F)(F)F)c(N2CC(F)(F)C2)cn1)C1CC1 (single isomer, unassigned) [Example 276, N-[4-amino-2-cyclopropyl-4-oxobutan-2-yl]-5-(3,3-difluoroazetidin-1-yl)-4-(2,2,2-trifluoroethoxy)pyridine-2-carboxamide] | – | – | 0.137 | > 10 | – |
| CC(CF)Oc1cc(C(=O)NC(C)(CC(N)=O)C2CC2)ncc1C1CC1 (centres unmarked) [Example 293, N-(4-amino-2-cyclopropyl-4-oxobutan-2-yl)-5-cyclopropyl-4-(1-fluoropropan-2-yloxy)picolinamide] | 0.0013 | > 10 | – | – | – |
| Cc1nc(C(C)(CS(C)(=O)=O)NC(=O)c2cc(OCC(F)F)c(C3CC3)cn2)no1 (single isomer, unassigned) [Example 284, 5-cyclopropyl-4-(2,2-difluoroethoxy)-N-(2-(5-methyl-1,2,4-oxadiazol-3-yl)-1-(methylsulfonyl)propan-2-yl)picolinamide] | – | – | 0.0453 | > 10 | – |
| Cc1nc(C(C)(NC(=O)c2cc(O[C@H](C)C(F)(F)F)c(C3CC3)cn2)C2CC2)no1 (single isomer, unassigned; epimer a) [Example 72] | 0.0027 | 0.19 | – | – | – |
| CC(C)(C)C(NC(=O)c1cc(OCC(F)(F)F)c(C2CC2)cn1)C(=O)N1CC(F)(F)C1 (centres unmarked) [Example 197, 5-cyclopropyl-N-[1-(3,3-difluoroazetidin-1-yl)-3,3-dimethyl-1-oxobutan-2-yl]-4-(2,2,2-trifluoroethoxy)pyridine-2-carboxamide] | 0.0076 | > 10 | – | – | – |
| O=C(NCC1(O)CCCC1)c1cc(OCC2CC2)c(C2CC2)cn1 [Example 56, 5-Cyclopropyl-4-cyclopropylmethoxy-pyridine-2-carboxylic acid (1-hydroxy-cyclopentylmethyl)-amide] | 0.0181 | > 10 | – | – | – |
| CCC(C)(CO)NC(=O)c1cc(OCC2CC2)c(Cl)cn1 (centres unmarked) [Example 26, 5-Chloro-4-cyclopropylmethoxy-pyridine-2-carboxylic acid (1-hydroxymethyl-1-methyl-propyl)-amide] | 0.0476 | > 10 | – | – | – |
| NC(=O)CC1(NC(=O)c2cc(OCC(F)F)c(C3CC3)cn2)CS(=O)(=O)C1 [Example 274, N-[3-(2-amino-2-oxoethyl)-1,1-dioxothietan-3-yl]-5-cyclopropyl-4-(2,2-difluoroethoxy)pyridine-2-carboxamide] | 0.0101 | > 10 | – | – | – |
| C[C@H](Oc1cc(C(=O)NC(C)(CC(N)=O)C2CC2)ncc1C1(F)COC1)C(F)(F)F (single isomer, unassigned) [Example 278] | – | – | 0.0929 | > 10 | – |
| Cc1nc(C(C)(CS(C)(=O)=O)NC(=O)c2cc(OCC(F)(F)F)c(C3CCC3)cn2)no1 (centres unmarked) [Example 109, 5-Cyclobutyl-4-(2,2,2-trifluoro-ethoxy)-pyridine-2-carboxylic acid [2-methanesulfonyl-1-methyl-1-(5-methyl-[1,2,4]oxadiazol-3-yl)-ethyl]-amide] | 0.0157 | > 10 | – | – | – |
| Cc1nc(C(C)(CC2CC2)NC(=O)c2cc(O[C@@H](C)C(F)(F)F)c(C3CC3)cn2)no1 (stereo partly drawn) [Example 101, 5-Cyclopropyl-4-((S)-2,2,2-trifluoro-1-methyl-ethoxy)-pyridine-2-carboxylic acid [2-cyclopropyl-1-methyl-1-(5-methyl-[1,2,4]oxadiazol-3-yl)-ethyl]-amide] | 0.0007 | 0.21 | – | – | – |
| NC(=O)CC1(NC(=O)c2cc(OCC(F)F)c(C3(F)CCC3)cn2)CS(=O)(=O)C1 [Example 308, N-[3-(2-amino-2-oxoethyl)-1,1-dioxothietan-3-yl]-4-(2,2-difluoroethoxy)-5-(1-fluorocyclobutyl)pyridine-2-carboxamide] | 0.073 | > 10 | – | – | – |
| CC(C)C[C@H](CC(N)=O)NC(=O)c1cc(OCC(F)(F)F)c(C2CC2)cn1 (single isomer, unassigned; enantiomer a) [Example 65, 5-Cyclopropyl-4-(2,2,2-trifluoro-ethoxy)-pyridine-2-carboxylic acid (1-carbamoylmethyl-3-methyl-butyl)-amide (enantiomer A)] | – | – | 0.027 | – | > 10 |
| Cc1nc(C(NC(=O)c2cc(O[C@@H](C)C(F)(F)F)c(C3CC3)cn2)C2(C)COC2)no1 (stereo partly drawn) [Example 254, 5-cyclopropyl-N-[(5-methyl-1,2,4-oxadiazol-3-yl)-(3-methyloxetan-3-yl)methyl]-4-[(2S)-1,1,1-trifluoropropan-2-yl]oxypyridine-2-carboxamide] | 0.0065 | > 10 | – | – | – |
| Cc1nc(C(C)(CC2CC2)NC(=O)c2cc(OCC(F)F)c(C3CC3)cn2)no1 (single isomer, unassigned) [Example 154, 5-cyclopropyl-N-[1-cyclopropyl-2-(5-methyl-1,2,4-oxadiazol-3-yl)propan-2-yl]-4-(2,2-difluoroethoxy)pyridine-2-carboxamide] | – | – | 0.0037 | – | > 10 |
| Cc1cnc(C(C)(CC2CC2)NC(=O)c2cc(OCC(F)(F)F)c(C3CC3)cn2)s1 (centres unmarked) [Example 177, 5-cyclopropyl-N-[1-cyclopropyl-2-(5-methyl-1,3-thiazol-2-yl)propan-2-yl]-4-(2,2,2-trifluoroethoxy)pyridine-2-carboxamide] | 0.0124 | > 10 | – | – | – |
| Cc1nc(C(NC(=O)c2cc(O[C@@H](C)C(F)(F)F)c(C3CC3)cn2)C(C)(C)C)no1 (stereo partly drawn) [Example 221, 5-cyclopropyl-N-[2,2-dimethyl-1-(5-methyl-1,2,4-oxadiazol-3-yl)propyl]-4-[(2S)-1,1,1-trifluoropropan-2-yl]oxypyridine-2-carboxamide] | 0.0084 | > 10 | – | – | – |
| Cc1nc(C(C)(CS(C)(=O)=O)NC(=O)c2cc(O[C@@H](C)C(F)(F)F)c(C3CC3)cn2)no1 (stereo partly drawn) [Example 103, 5-Cyclopropyl-4-((S)-2,2,2-trifluoro-1-methyl-ethoxy)-pyridine-2-carboxylic acid [2-methanesulfonyl-1-methyl-1-(5-methyl-[1,2,4]oxadiazol-3-yl)-ethyl]-amide] | 0.0034 | 0.48 | – | – | – |
| CC(C)(O)CNC(=O)c1cc(OCC(F)(F)F)c(C2CC2)cn1 [Example 60, 5-Cyclopropyl-4-(2,2,2-trifluoro-ethoxy)-pyridine-2-carboxylic acid (2-hydroxy-2-methyl-propyl)-amide] | 0.481 | > 10 | – | – | – |
